One experiment deals with T1, human Keap1 kelch domain (amino acids Ala321-Thr609) (Homo sapiens, UniProt Q14145).
T1 construct: human Keap1 kelch domain (amino acids Ala321-Thr609)
T1 sequence (Q14145 321-609): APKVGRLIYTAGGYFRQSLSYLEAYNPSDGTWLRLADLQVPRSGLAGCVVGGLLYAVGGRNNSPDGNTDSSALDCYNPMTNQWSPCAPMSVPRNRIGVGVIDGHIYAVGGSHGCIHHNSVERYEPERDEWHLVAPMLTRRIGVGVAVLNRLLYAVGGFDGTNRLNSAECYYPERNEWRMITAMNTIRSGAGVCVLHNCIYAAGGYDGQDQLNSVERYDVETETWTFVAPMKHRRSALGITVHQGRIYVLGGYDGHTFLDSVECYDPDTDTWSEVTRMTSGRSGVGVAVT
Kind of experiment: Keap1-Nrf2 peptide binding assay (fluorescence polarisation). The note with it: binding of Keap1 kelch domain (20 nM) to fluorescently labeled Nrf2 peptide (50 nM). The procedure: A fluorescence polarisation assay was used to measure binding of the human Keap1 kelch domain (amino acids Ala321-Thr609) to a fluorescently labeled peptide containing a Keap1 binding site of human Nrf2 (Alexa633-AFFAQLQLDEETGEFL; JPT Technologies, Berlin, Germany). Two microliters of test compound in reaction buffer (phosphate-buffered saline, 2 mM DL-dithiothreitol, 0.015 % (v/v) Brij-35) containing 6 % (v/v) DMSO were mixed with two microliters of the Keap1 kelch domain in reaction buffer in a black 384-well small volume microtiter plate and incubated at ambient temperature for 15 minutes. Thereafter, two microliters were added of the fluorescently labeled Nrf2 peptide in reaction buffer, and the mixture was incubated for a further 30 minutes at ambient temperature. Final concentrations of the Keap1 kelch domain and the fluorescently labeled Nrf2 peptide were 20 nM and 50 nM, respectively.
Fluorescence polarization (FP) was measured at excitation and emission wavelengths of 635 nm and 660 nm, respectively. Positive controls for binding (two microliters of reaction buffer containing 6 % (v/v) DMSO instead of test compound in the same buffer) and negative controls (as positive controls, but without Keap1 kelch domain) were included on each microtiter plate. Data were expressed as percent-inhibition values: percentinhibition = 100⋅(1-(|FPcompound-FPnegative controle|)/(|FPpositive controle-FPnegative controle|)) [formula]
IC50 values were determined by testing different compound concentrations and fitting the resulting percent-inhibition values to the following equation using XLFit4: percentinhibition = A + (B-A)/(1 + (((IC50)/([Compound])))^D) [formula]
Parameter A was set to zero, pre-fit values for parameters B and D were set to 100 and 1, respectively.
The IC50 is the concentration needed to halve the response being measured. Take `Cc1ccc(C#N)c(S(=O)(=O)Nc2ccc(-c3cccc(C(=O)O)c3)c3ccccc23)c1` [Example 53, 3-[4-[(2-cyano-5-methylphenyl)sulfonylamino]-1-naphthyl]benzoic acid]: the IC50 is 6.7 µM. Still for that read-out and setting: the result for `Cc1cc(Cl)c(C)c(S(=O)(=O)Nc2ccc(-c3cccc(C(=O)O)c3)c3ccccc23)c1Cl` [Example 57, 3-[4-[(2,5-dichloro-3,6-dimethylphenyl)sulfonylamino]-1-naphthyl]benzoic acid] reads 0.6 µM; that for `O=C(O)c1cccc(-c2ccc(NS(=O)(=O)c3cc(F)cc(F)c3F)c3ccccc23)c1` [Example 42, 3-[4-[(2,3,5-trifluorophenyl)sulfonylamino]-1-naphthyl]benzoic acid], 6.4 µM. Take `Cc1c(Cl)cc(F)cc1S(=O)(=O)Nc1ccc(-c2cccc(C(=O)O)c2)c2ccccc12` [Example 46, 3-[4-[(3-chloro-5-fluoro-2-methylphenyl)sulfonylamino]-1-naphthyl]benzoic acid]: the IC50 is 2.1 µM.

`O=C(O)c1ccc(F)c(-c2ccc(NS(=O)(=O)c3c(Cl)cc(C(F)(F)F)cc3Cl)c3ccccc23)c1` [Example 81, 3-[4-[[2,6-dichloro-4-(trifluoromethyl)phenyl]sulfonylamino]-1-naphthyl]-4-fluoro-benzoic acid] had an IC50 of 0.7 µM. For the molecule `O=C(O)c1cccc(-c2ccc(NS(=O)(=O)c3ccc(OC(F)(F)F)c(Cl)c3)c3ccccc23)c1` [Example 38, 3-[4-[[3-chloro-4-(trifluoromethoxy)phenyl]sulfonylamino]-1-naphthyl]benzoic acid], the IC50 stood at 6.8 µM.

The molecule `O=C(O)c1cccc(-c2ccc(NS(=O)(=O)c3ccc(Cl)c(C(F)(F)F)c3)c3ccccc23)c1` [Example 37, [4-[[4-chloro-3-(trifluoromethyl)phenyl]sulfonylamino]-1-naphthyl]benzoic acid] returned an IC50 of 4 µM.

For the molecule `O=C(O)c1cccc(-c2ccc(NS(=O)(=O)c3cc(Cl)c(F)cc3F)c3ccccc23)c1` [Example 40, 3-[4-[(5-chloro-2,4-difluorophenyl)sulfonylamino]-1-naphthyl]benzoic acid], the IC50 is 4.4 µM. Same read-out and setting: for `Cc1ccc(Cl)cc1S(=O)(=O)Nc1ccc(-c2cccc(C(=O)O)c2)c2ccccc12` [Example 41, 3-[4-[(5-chloro-2-methylphenyl)sulfonylamino]-1-naphthyl]benzoic acid] the value was 1.4 µM; for `Cc1cc(NC(=O)c2ccccc2)ccc1S(=O)(=O)Nc1ccc(-c2cccc(C(=O)O)c2)c2ccccc12` [Example 47, 3-[4-[(4-benzamido-2-methylphenyl)sulfonylamino]-1-naphthyl]benzoic acid], 5 µM; for `Cc1cccc(Cl)c1S(=O)(=O)Nc1ccc(-c2cccc(C(=O)O)c2)c2ccccc12` [Example 21, 3-[4-[(2-chloro-6-methylphenyl)sulfonylamino]-1-naphthyl]benzoic acid], 1.8 µM.

Staying with this experiment, now noted: binding of Keap1 kelch domain (20 nM) to fluorescently labeled Nrf2 peptide (50 nM); read-out: IC50.
As for `Cc1nn(C)c(C)c1S(=O)(=O)Nc1ccc(-c2cc(C(=O)O)ccc2F)c2ccccc12` [Example 79, 4-fluoro-3-[4-[(1,3,5-trimethylpyrazol-4-yl)sulfonylamino]-1-naphthyl]benzoic acid], the IC50 was found to be 0.4 µM. `COc1ccc(F)c(S(=O)(=O)Nc2ccc(-c3cccc(C(=O)O)c3)c3ccccc23)c1` [Example 32, 3-[4-[(2-fluoro-5-methoxyphenyl)sulfonylamino]-1-naphthyl]benzoic acid]: the IC50 was determined as 3.3 µM. As to `Cc1c(S(=O)(=O)Nc2ccc(-c3cc(C(=O)O)ccc3F)c3ncccc23)c2ccccc2n1C` [Example 96, 3-[5-[(1,2-dimethylindol-3-yl)sulfonylamino]-8-quinolyl]-4-fluoro-benzoic acid], the IC50 was 0.9 µM. Same read-out and setting: for `O=C(O)c1ccc(F)c(-c2ccc(NS(=O)(=O)c3cc(F)c(F)cc3Cl)c3ccccc23)c1` [Example 82, 3-[4-[(2-chloro-4,5-difluorophenyl)sulfonylamino]-1-naphthyl]-4-fluorobenzoic acid] the value was 5.1 µM; for `Cc1cc(C)c(C)c(S(=O)(=O)Nc2ccc(-c3cccc(C(=O)O)c3F)c3ccccc23)c1C` [Example 4, 2-fluoro-3-[4-[(2,3,5,6-tetramethylphenyl)sulfonylamino]-1-naphthyl]benzoic acid], 0.2 µM. Still for that read-out and setting: the result for `CCCCn1cc(S(=O)(=O)Nc2ccc(-c3cccc(C(=O)O)c3)c3ccccc23)c(C)n1` [Example 62, 3-[4-[(1-butyl-3-methyl-pyrazol-4-yl)sulfonylamino]-1-naphthyl]benzoic acid] reads 0.7 µM; that for `O=C(O)c1cccc(-c2ccc(NS(=O)(=O)c3ccc4[nH]c(=O)sc4c3)c3ccccc23)c1` [Example 29, 3-[4-[(2-oxo-3H-1,3-benzothiazol-6-yl)sulfonylamino]-1-naphthyl]benzoic acid], 5.1 µM; that for `Cc1c(S(=O)(=O)Nc2ccc(-c3cc(C(=O)O)ccc3F)c3ncccc23)sc2cccc(F)c12` [Example 94, 4-fluoro-3-[5-[(4-fluoro-3-methyl-benzothiophen-2-yl)sulfonylamino]-8-quinolyl]benzoic acid], 3 µM. On the same count and under the same terms, the result for `Cc1c(S(=O)(=O)Nc2ccc(-c3cccc(C(=O)O)c3)c3ccccc23)cnn1-c1ccccc1` [Example 23, 3-[4-[(5-methyl-1-phenyl-pyrazol-4-yl)sulfonylamino]-1-naphthyl]benzoic acid] reads 4.5 µM; that for `O=C(O)c1cccc(-c2ccc(NS(=O)(=O)c3c(F)cccc3F)c3ccccc23)c1` [Example 16, 3-[4-[(2,6-difluorophenyl)sulfonylamino]-1-naphthyl]benzoic acid], 6.5 µM. Turning to `Cc1nc(-c2ccc(C(F)(F)F)cc2)sc1S(=O)(=O)Nc1ccc(-c2cc(C(=O)O)ccc2F)c2ccccc12` [Example 9, 4-fluoro-3-[4-[[4-methyl-2-[4-(trifluoromethyl)phenyl]thiazol-5-yl]sulfonylamino]-1-naphthyl]benzoic acid], the IC50 worked out at 5.8 µM. On the same count and under the same terms, the result for `COc1ccc(F)c(S(=O)(=O)Nc2ccc(-c3cc(C(=O)O)ccc3F)c3ccccc23)c1` [Example 91, 4-fluoro-3-[4-[(2-fluoro-5-methoxyphenyl)sulfonylamino]-1-naphthyl]benzoic acid] reads 2.2 µM. Still for that read-out and setting: the result for `Cc1cc(C)c(C)c(S(=O)(=O)Nc2ccc(-c3ccc(F)c(C(=O)O)c3)c3ccccc23)c1C` [Example 6, 2-fluoro-5-[4-[(2,3,5,6-tetramethylphenyl)sulfonylamino]-1-naphthyl]benzoic acid] reads 1.7 µM. For the molecule `Cc1cc(C)c(C)c(S(=O)(=O)Nc2ccc(-c3cccc(C(=O)O)c3)c3ccccc23)c1C` [Example 1, 3-[4-[(2,3,5,6-tetramethyl-phenyl)-sulfonylamino]-1-naphthyl]benzoic acid], the IC50 was determined as 0.2 µM. The same measure, in the same setting: the result for `COc1ccc(S(=O)(=O)Nc2ccc(-c3cccc(C(=O)O)c3)c3ccccc23)c(OC)c1` [Example 2, 3-[4-[(2,4-dimethoxyphenyl)sulfonylamino]-1-naphthyl]benzoic acid] reads 4.5 µM. For the molecule `CC(=O)N1CCCc2cc(S(=O)(=O)Nc3ccc(-c4cccc(C(=O)O)c4)c4ccccc34)ccc21` [Example 30, 3-[4-[(1-acetyl-3,4-dihydro-2H-quinolin-6-yl)sulfonylamino]-1-naphthyl]benzoic acid], the IC50 amounted to 4.3 µM. On the same count and under the same terms, the result for `CCCn1ncc(S(=O)(=O)Nc2ccc(-c3cc(C(=O)O)ccc3F)c3ccccc23)c1C` [Example 72, 4-fluoro-3-[4-[(5-methyl-1-propyl-pyrazol-4-yl)sulfonylamino]-1-naphthyl]benzoic acid] reads 1.4 µM.

Consider `COc1cc(C)ccc1S(=O)(=O)Nc1ccc(-c2cc(C(=O)O)ccc2F)c2ccccc12` [Example 89, 4-fluoro-3-[4-[(2-methoxy-4-methylphenyl)sulfonylamino]-1-naphthyl]benzoic acid], for which the IC50 was found to be 2.5 µM.

Turning to `Cc1c(S(=O)(=O)Nc2ccc(-c3cccc(C(=O)O)c3)c3ccccc23)sc2ccc(Cl)cc12` [Example 17, 3-[4-[(5-chloro-3-methyl-benzothiophen-2-yl)sulfonylamino]-1-naphthyl]benzoic acid], the IC50 amounted to 1.6 µM. Same read-out and setting: the result for `Cc1cc(S(=O)(=O)Nc2ccc(-c3cccc(C(=O)O)c3)c3ccccc23)c(C)o1` [Example 58, 3-[4-[(2,5-dimethyl-3-furyl)sulfonylamino]-1-naphthyl]benzoic acid] reads 4.6 µM; that for `Cc1nc(-c2ccccc2)sc1S(=O)(=O)Nc1ccc(-c2cccc(C(=O)O)c2)c2ccccc12` [Example 39, 3-[4-[(4-methyl-2-phenyl-thiazol-5-yl)sulfonylamino]-1-naphthyl]benzoic acid], 2.8 µM. Take `CCCCCCCCn1nc(C)c(S(=O)(=O)Nc2ccc(-c3cc(C(=O)O)ccc3F)c3ncccc23)c1C` [Example 95, 3-[5-[(3,5-dimethyl-1-octyl-pyrazol-4-yl)sulfonylamino]-8-quinolyl]-4-fluorobenzoic acid]: the IC50 was found to be 2.2 µM.

Values taken from patent EP2998294A1, “Naphthyl sulfonamide phenyl derivatives as KEAP-1 modulators for the treatment of diabetes, obesity, dyslipidemia and related disorders” (SANOFI, priority 2014, dated 2016).
